# Experimental data published in patent US20100298141A1, “SUBSTITUTED PYRIDINE N-OXIDE HERBICIDES” (E. I. DU PONT DE NEMOURS AND COMPANY, priority 2007, published 2010).
# Columns and labels:
# barnyardgrass = assay: Test A pre-/postemergence greenhouse test; assay type: in vivo, Echinochloa crus-galli; conditions: for Barnyardgrass plant response rating: 0 to 100 scale; for Plant response rating, Barnyardgrass: 0 to 100 scale where 0 is no effect and 100 is complete control
# Method in brief: (§1)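 Each test compound, dissolved in a non-phytotoxic solvent mixture with surfactant, was sprayed directly onto seeded soil (loam/sand blend) and, at the same moment, onto seedlings carrying one to two leaves. Around ten greenhouse days later, plants were rated visually for injury relative to untreated controls.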
# redroot pigweed = assay: Test A pre-/postemergence greenhouse test; assay type: in vivo, Amaranthus retroflexus; conditions: for Pigweed plant response rating: 0 to 100 scale; for Plant response rating, Pigweed: 0 to 100 scale where 0 is no effect and 100 is complete control
# Method in brief: as §1
# velvetleaf [1] = assay: Test A pre-/postemergence greenhouse test; assay type: in vivo, Abutilon theophrasti; conditions: for Velvetleaf plant response rating: 0 to 100 scale; for Plant response rating, Velvetleaf: 0 to 100 scale where 0 is no effect and 100 is complete control
# Method in brief: as §1
# downy brome = assay: Test C pre-/postemergence test; assay type: in vivo, Bromus tectorum; conditions: for Plant response rating, Bromegrass, Downy: 31 g ai/ha, scale 0 to 100 (0 no effect, 100 complete control); for Plant response rating (0 to 100), Bromegrass, Downy: 250 g ai/ha
# Method in brief: (§2)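 Seeds were planted and treated preemergence with test chemical in a non-phytotoxic solvent mixture containing surfactant. Postemergence applications of the same formulation went onto plants 2 to 18 cm tall (1- to 4-leaf stage). A dash marks no test result.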
# green foxtail = assay: Test C pre-/postemergence test; assay type: in vivo, Setaria viridis; conditions: Preemergence; for Foxtail, Green plant response rating: 62 g ai/ha, scale 0 to 100; for Plant response rating, Foxtail, Green: 31 g ai/ha, scale 0 to 100 (0 no effect, 100 complete control); for Plant response rating (0 to 100), Foxtail, Green: 250 g ai/ha
# Method in brief: as §2
# wild oat = assay: Test C pre-/postemergence test; assay type: in vivo, Avena fatua; conditions: Preemergence; for Oat, Wild plant response rating: 62 g ai/ha, scale 0 to 100; for Plant response rating, Oat, Wild: 31 g ai/ha, scale 0 to 100 (0 no effect, 100 complete control)
# Method in brief: as §2
# Surinam grass = assay: Test C pre-/postemergence test; assay type: in vivo, Brachiaria decumbens; conditions: Preemergence; for Surinam Grass plant response rating: 62 g ai/ha, scale 0 to 100; for Plant response rating, Surinam Grass: 31 g ai/ha, scale 0 to 100 (0 no effect, 100 complete control)
# Method in brief: as §2
# cocklebur = assay: Test C pre-/postemergence test; assay type: in vivo, Xanthium strumarium; conditions: for Plant response rating, Cocklebur: 31 g ai/ha, scale 0 to 100 (0 no effect, 100 complete control); for Plant response rating (0 to 100), Cocklebur: 250 g ai/ha
# Method in brief: as §2
# crabgrass = assay: Test C pre-/postemergence test; assay type: in vivo, Digitaria sanguinalis; conditions: Preemergence; for Crabgrass, Large plant response rating: 62 g ai/ha, scale 0 to 100; for Plant response rating, Crabgrass, Large: 31 g ai/ha, scale 0 to 100 (0 no effect, 100 complete control); for Plant response rating (0 to 100), Crabgrass, Large: 250 g ai/ha
# Method in brief: as §2
# giant foxtail = assay: Test C pre-/postemergence test; assay type: in vivo, Setaria faberii; conditions: Preemergence; for Foxtail, Giant plant response rating: 62 g ai/ha, scale 0 to 100; for Plant response rating, Foxtail, Giant: 31 g ai/ha, scale 0 to 100 (0 no effect, 100 complete control); for Plant response rating (0 to 100), Foxtail, Giant: 250 g ai/ha
# Method in brief: as §2
# johnsongrass = assay: Test C pre-/postemergence test; assay type: in vivo, Sorghum halepense; conditions: Preemergence; for Johnsongrass plant response rating: 62 g ai/ha, scale 0 to 100; for Plant response rating, Johnsongrass: 31 g ai/ha, scale 0 to 100 (0 no effect, 100 complete control); for Plant response rating (0 to 100), Johnsongrass: 250 g ai/ha
# Method in brief: as §2
# kochia = assay: Test C pre-/postemergence test; assay type: in vivo, Kochia scoparia; conditions: Preemergence; for Kochia plant response rating: 62 g ai/ha, scale 0 to 100; for Plant response rating, Kochia: 31 g ai/ha, scale 0 to 100 (0 no effect, 100 complete control)
# Method in brief: as §2
# lambsquarters = assay: Test C pre-/postemergence test; assay type: in vivo, Chenopodium album; conditions: Preemergence; for Lambsquarters plant response rating: 62 g ai/ha, scale 0 to 100; for Plant response rating, Lambsquarters: 31 g ai/ha, scale 0 to 100 (0 no effect, 100 complete control)
# Method in brief: as §2
# eastern black nightshade = assay: Test C pre-/postemergence test; assay type: in vivo, Solanum ptycanthum; conditions: Preemergence; for Nightshade plant response rating: 62 g ai/ha, scale 0 to 100; for Plant response rating, Nightshade: 31 g ai/ha, scale 0 to 100 (0 no effect, 100 complete control)
# Method in brief: as §2
# common ragweed = assay: Test C pre-/postemergence test; assay type: in vivo, Ambrosia elation; conditions: Preemergence; for Ragweed plant response rating: 62 g ai/ha, scale 0 to 100
# Method in brief: as §2
# velvetleaf [2] = assay: Test C pre-/postemergence test; assay type: in vivo, Abutilon theophrasti; conditions: Preemergence; for Velvetleaf plant response rating: 62 g ai/ha, scale 0 to 100; for Plant response rating, Velvetleaf: 31 g ai/ha, scale 0 to 100 (0 no effect, 100 complete control)
# Method in brief: as §2
# rice = assay: Test C flooded paddy test; assay type: in vivo, Oryza sativa; conditions: Flood
# Method in brief: (§3)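 Visual injury ratings against untreated controls, taken 13 to 15 days after compound was added to paddy water standing 3 cm above the soil.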
# duck salad = assay: Test C flooded paddy test; assay type: in vivo, Heteranthera limosa; conditions: Flood
# Method in brief: as §3
# [3] = Postemergence, 125 g ai/ha, 0 is no effect, 100 is complete control
# [4] = Postemergence, 500 g ai/ha, 0 is no effect, 100 is complete control
# [5] = Preemergence, 125 g ai/ha, 0 no effect, 100 complete control
# [6] = 62 g ai/ha, Preemergence, scale 0 to 100
# [7] = preemergence, 125 g ai/ha, scale 0 (no effect) to 100 (complete control)
# [8] = 31 g ai/ha, scale 0 to 100 (0 no effect, 100 complete control)
# [9] = 62 g ai/ha, scale 0 to 100, 0 no effect, 100 complete control, 13 to 15 days
# [10] = 125 g ai/ha, scale 0 to 100, 0 no effect, 100 complete control, 13 to 15 days
# [11] = 250 g ai/ha, scale 0 to 100, 0 no effect, 100 complete control, 13 to 15 days
smiles,measurement,setting,value
CC(c1c(C(F)(F)F)nn(C)c1OCC(F)(F)F)S(=O)(=O)c1cccc[n+]1[O-] (racemic) [Compound 33],Barnyardgrass plant response rating,barnyardgrass; [3],70
same,Barnyardgrass plant response rating,barnyardgrass; [4],100
same,Barnyardgrass plant response rating,barnyardgrass; [5],100
same,"Plant response rating, Barnyardgrass","barnyardgrass; Preemergence, 500 g ai/ha",100
same,Pigweed plant response rating,redroot pigweed; [3],60
same,Pigweed plant response rating,redroot pigweed; [4],90
same,Pigweed plant response rating,redroot pigweed; [5],100
same,"Plant response rating, Pigweed","redroot pigweed; Preemergence, 500 g ai/ha",100
same,Velvetleaf plant response rating,velvetleaf [1]; [3],40
same,Velvetleaf plant response rating,velvetleaf [1]; [4],60
same,Velvetleaf plant response rating,velvetleaf [1]; [5],70
same,"Plant response rating, Velvetleaf","velvetleaf [1]; Preemergence, 500 g ai/ha",100
same,"Bromegrass, Downy plant response rating",downy brome; [6],20
same,"Plant response rating, Bromegrass, Downy",downy brome; Preemergence,0
same,"Plant response rating (0 to 100), Bromegrass, Downy",downy brome; Preemergence,98
same,"Bromegrass, Downy plant response rating",downy brome; [7],70
same,"Foxtail, Green plant response rating",green foxtail,75
same,"Plant response rating, Foxtail, Green",green foxtail,75
same,"Plant response rating (0 to 100), Foxtail, Green",green foxtail,100
same,"Oat, Wild plant response rating",wild oat,65
same,"Plant response rating, Oat, Wild",wild oat,50
same,Surinam Grass plant response rating,Surinam grass,100
same,"Plant response rating, Surinam Grass",Surinam grass,80
same,Cocklebur plant response rating,cocklebur; [6],0
same,"Plant response rating, Cocklebur",cocklebur; Preemergence,0
same,"Plant response rating (0 to 100), Cocklebur",cocklebur; Preemergence,45
same,Cocklebur plant response rating,cocklebur; [7],40
same,"Crabgrass, Large plant response rating",crabgrass,100
same,"Plant response rating, Crabgrass, Large",crabgrass,100
same,"Plant response rating (0 to 100), Crabgrass, Large",crabgrass,100
same,"Foxtail, Giant plant response rating",giant foxtail,100
same,"Plant response rating, Foxtail, Giant",giant foxtail,98
same,"Plant response rating (0 to 100), Foxtail, Giant",giant foxtail,100
same,Johnsongrass plant response rating,johnsongrass,100
same,"Plant response rating, Johnsongrass",johnsongrass,98
same,"Plant response rating (0 to 100), Johnsongrass",johnsongrass,100
same,Kochia plant response rating,kochia,100
same,"Plant response rating, Kochia",kochia,100
same,Lambsquarters plant response rating,lambsquarters,100
same,"Plant response rating, Lambsquarters",lambsquarters,90
same,Nightshade plant response rating,eastern black nightshade,85
same,"Plant response rating, Nightshade",eastern black nightshade,70
same,Ragweed plant response rating,common ragweed,10
same,Velvetleaf plant response rating,velvetleaf [2],100
same,"Plant response rating, Velvetleaf",velvetleaf [2],100
same,"Plant response rating, Rice",rice; [8],0
same,"Plant response rating, Rice",rice; [9],0
same,"Plant response rating, Rice",rice; [10],30
same,"Plant response rating, Rice",rice; [11],75
same,"Plant response rating, Ducksalad",duck salad; [8],0
same,"Plant response rating, Ducksalad",duck salad; [9],0
same,"Plant response rating, Ducksalad",duck salad; [10],45
same,"Plant response rating, Ducksalad",duck salad; [11],95
Cn1nc(C(F)(F)F)c(C[S+]([O-])c2cc(C(F)(F)F)cc[n+]2[O-])c1Cl (racemic) [Compound 34],Barnyardgrass plant response rating,barnyardgrass; [3],40
same,Barnyardgrass plant response rating,barnyardgrass; [4],60
same,Barnyardgrass plant response rating,barnyardgrass; [5],80
same,"Plant response rating, Barnyardgrass","barnyardgrass; Preemergence, 500 g ai/ha",100
same,Pigweed plant response rating,redroot pigweed; [3],60
same,Pigweed plant response rating,redroot pigweed; [4],70
same,Pigweed plant response rating,redroot pigweed; [5],100
same,"Plant response rating, Pigweed","redroot pigweed; Preemergence, 500 g ai/ha",100
same,Velvetleaf plant response rating,velvetleaf [1]; [3],30
same,Velvetleaf plant response rating,velvetleaf [1]; [4],60
same,Velvetleaf plant response rating,velvetleaf [1]; [5],30
same,"Plant response rating, Velvetleaf","velvetleaf [1]; Preemergence, 500 g ai/ha",60
same,"Bromegrass, Downy plant response rating",downy brome; [6],0
same,"Plant response rating, Bromegrass, Downy",downy brome; Preemergence,0
same,"Plant response rating (0 to 100), Bromegrass, Downy",downy brome; Preemergence,20
same,"Bromegrass, Downy plant response rating",downy brome; [7],20
same,"Foxtail, Green plant response rating",green foxtail,50
same,"Plant response rating, Foxtail, Green",green foxtail,10
same,"Plant response rating (0 to 100), Foxtail, Green",green foxtail,100
same,"Oat, Wild plant response rating",wild oat,40
same,"Plant response rating, Oat, Wild",wild oat,0
same,Surinam Grass plant response rating,Surinam grass,0
same,"Plant response rating, Surinam Grass",Surinam grass,0
same,Cocklebur plant response rating,cocklebur; [6],0
same,"Plant response rating, Cocklebur",cocklebur; Preemergence,0
same,"Plant response rating (0 to 100), Cocklebur",cocklebur; Preemergence,30
same,Cocklebur plant response rating,cocklebur; [7],0
same,"Crabgrass, Large plant response rating",crabgrass,100
same,"Plant response rating, Crabgrass, Large",crabgrass,98
same,"Plant response rating (0 to 100), Crabgrass, Large",crabgrass,100
same,"Foxtail, Giant plant response rating",giant foxtail,20
same,"Plant response rating, Foxtail, Giant",giant foxtail,20
same,"Plant response rating (0 to 100), Foxtail, Giant",giant foxtail,50
same,Johnsongrass plant response rating,johnsongrass,85
same,"Plant response rating, Johnsongrass",johnsongrass,85
same,"Plant response rating (0 to 100), Johnsongrass",johnsongrass,100
same,Kochia plant response rating,kochia,0
same,"Plant response rating, Kochia",kochia,0
same,Lambsquarters plant response rating,lambsquarters,50
same,"Plant response rating, Lambsquarters",lambsquarters,0
same,Nightshade plant response rating,eastern black nightshade,100
same,"Plant response rating, Nightshade",eastern black nightshade,85
same,Ragweed plant response rating,common ragweed,45
same,"Plant response rating, Ragweed",common ragweed; [8],45
same,Velvetleaf plant response rating,velvetleaf [2],70
same,"Plant response rating, Velvetleaf",velvetleaf [2],40
same,"Plant response rating, Rice",rice; [8],0
same,"Plant response rating, Rice",rice; [9],0
same,"Plant response rating, Rice",rice; [10],0
same,"Plant response rating, Rice",rice; [11],40
same,"Plant response rating, Ducksalad",duck salad; [8],0
same,"Plant response rating, Ducksalad",duck salad; [9],75
same,"Plant response rating, Ducksalad",duck salad; [10],80
same,"Plant response rating, Ducksalad",duck salad; [11],85
